Data: patent US5380359A, “Cosmetics based on naturally derived melanin-coated pigments” (Kyowa Hakko Kogyo Co., Ltd., priority 1992, dated 1995)

Experiment: Anti-oxidizing property: lipid peroxide elimination rate (Determiner LPO, cumene hydroperoxide)
Type: biochemical
Conditions: concentration of 0.014%
Procedure: Purified water was added to 0.1 g of microbial melanin, synthetic melanin or sepia melanin and 0.1 g of sodium hydroxide to prepare 100 ml of solution, and the pH was adjusted to 7 with hydrochloric acid.
To 0.1 g of dl-α-tocopherol was added ethanol to prepare 100 ml of solution.
To 0.1 g of ascorbic acid was added purified water to prepare 100 ml of solution.
To 5.02 mg of an 80% cumene hydroperoxide (hereinafter abbreviated to CPO) solution was added purified water to prepare 100 ml of solution (264 nmol/ml).
The microbial melanin solution, the ascorbic acid solution, the dl-α-tocopherol solution, the synthetic melanin solution or the sepia melanin solution was added to a system in which CPO was reacted with a methylene blue derivative in the presence of hemoglobin as a catalyst, using Determiner LPO (product of Kyowa Medex Co., Ltd.) as a reaction reagent, thereby producing an equimolar amount of methylene blue which developed the color of the system. The anti-oxidizing property of the microbial melanin, ascorbic acid, dl-α-tocopherol, the synthetic melanin and the sepia melanin was determined on the basis of the degree of inhibition of the production of methylene blue. […]
In the equation, As indicates the absorbance of the test sample, Astd the absorbance of the standard sample, and AB the absorbance of the blank test sample. […]

Cc1c(C)c2c(c(C)c1O)CCC(C)(CCCC(C)CCCC(C)CCCC(C)C)O2 (racemic) [dl-α-tocopherol]
Lipid peroxide elimination rate: 72.4%

O=C1O[C@H]([C@@H](O)CO)C(O)=C1O [Ascorbic acid, ascorbic acid]
Lipid peroxide elimination rate: 97.4%
